From patent US9695155B2, “Herbicidal substituted pyrimidinyloxy benzene compounds” (E. I. DU PONT DE NEMOURS AND COMPANY, priority 2013, dated 2017)

Legend:
large (Lg) crabgrass [1] = assay: Test A preemergence; format: in vivo, Digitaria sanguinalis; conditions: for Crabgrass, Large plant response rating: 500 g ai/ha
How it was run: (§1)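 Visual 0–100 rating (100 = complete control) taken about 10 d post-treatment relative to untreated checks. Preemergence: directed soil spray on sown loam/sand pots. Postemergence: seedlings 2–10 cm, 1–2 leaf. Non-phytotoxic solvent formulation with surfactant.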

wheat [2] = assay: Test A preemergence; format: in vivo, Triticum aestivum; conditions: for Wheat plant response rating: 500 g ai/ha
How it was run: as §1

rice = assay: Test B flooded paddy test; format: in vivo, Oryza sativa; conditions: Flood, 250 g ai/ha; 0 to 100 scale where 0 is no effect and 100 is complete control
How it was run: (§2)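 Greenhouse flooded-pot test: compounds dosed into 3 cm standing water over 2-leaf plants, flood held constant. Rated visually after 13–15 days on 0–100 (complete control = 100); a dash marks no test result.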

sedge, umbrella = assay: Test B flooded paddy test; format: in vivo, Cyperus difformis; conditions: Flood, 250 g ai/ha; 0 to 100 scale where 0 is no effect and 100 is complete control
How it was run: as §2

pigweed [3] = assay: Test A preemergence; format: in vivo, Amaranthus retroflexus; conditions: for Pigweed plant response rating: 500 g ai/ha
How it was run: as §1

morningglory [4] = assay: Test A preemergence; format: in vivo, Ipomoea spp.; conditions: for Morningglory plant response rating: 500 g ai/ha
How it was run: as §1

corn [5] = assay: Test A preemergence; format: in vivo, Zea mays; conditions: for Corn plant response rating: 500 g ai/ha
How it was run: as §1

wheat [6] = assay: Test A postemergence; format: in vivo, Triticum aestivum
How it was run: as §1

giant foxtail [7] = assay: Test A postemergence; format: in vivo, Setaria faberii
How it was run: as §1

barnyardgrass [8] = assay: Test B flooded paddy test; format: in vivo, Echinochloa crus-galli; conditions: Flood, 250 g ai/ha; 0 to 100 scale where 0 is no effect and 100 is complete control
How it was run: as §2

velvetleaf [9] = assay: Test A postemergence; format: in vivo, Abutilon theophrasti
How it was run: as §1

pigweed [10] = assay: Test A postemergence; format: in vivo, Amaranthus retroflexus
How it was run: as §1

morningglory [11] = assay: Test A postemergence; format: in vivo, Ipomoea spp.
How it was run: as §1

corn [12] = assay: Test A postemergence; format: in vivo, Zea mays
How it was run: as §1

giant foxtail [13] = assay: Test A preemergence; format: in vivo, Setaria faberii; conditions: for Foxtail, Giant plant response rating: 500 g ai/ha
How it was run: as §1

barnyardgrass [14] = assay: Test A postemergence; format: in vivo, Echinochloa crus-galli
How it was run: as §1

barnyardgrass [15] = assay: Test A preemergence; format: in vivo, Echinochloa crus-galli; conditions: for Barnyardgrass plant response rating: 500 g ai/ha
How it was run: as §1

velvetleaf [16] = assay: Test A preemergence; format: in vivo, Abutilon theophrasti; conditions: for Velvetleaf plant response rating: 500 g ai/ha
How it was run: as §1

large (Lg) crabgrass [17] = assay: Test A postemergence; format: in vivo, Digitaria sanguinalis
How it was run: as §1

Heteranthera limosa = assay: Test B flooded paddy test; format: in vivo; conditions: Flood, 250 g ai/ha; 0 to 100 scale where 0 is no effect and 100 is complete control
How it was run: as §2

[18] = 0 to 100 scale where 0 is no effect and 100 is complete control
[19] = 125 g ai/ha, 0 to 100 scale where 0 is no effect and 100 is complete control
[20] = 500 g ai/ha, 0 to 100 scale where 0 is no effect and 100 is complete control
[21] = 0 to 100 scale, 0 no effect, 100 complete control, approx. 10 days
[22] = 500 g ai/ha, 0 to 100 scale, 0 no effect, 100 complete control

COc1cnc(Oc2ccccc2-n2cccn2)nc1 [Compound 227]
Crabgrass, Large plant response rating (0 to 100 scale) (large (Lg) crabgrass [1]; 125 g ai/ha): 0 | Crabgrass, Large plant response rating (large (Lg) crabgrass [1]; [18]): 10 | Wheat plant response rating (0 to 100 scale) (wheat [2]; 125 g ai/ha): 0 | Wheat plant response rating (wheat [2]; [18]): 0 | Plant response rating, Rice (rice): 0 | Plant response rating, Sedge, Umbrella (sedge, umbrella): 0 | Pigweed plant response rating (0 to 100 scale) (pigweed [3]; 125 g ai/ha): 10 | Pigweed plant response rating (pigweed [3]; [18]): 60 | Morningglory plant response rating (0 to 100 scale) (morningglory [4]; 125 g ai/ha): 0 | Morningglory plant response rating (morningglory [4]; [18]): 0 | Corn plant response rating (0 to 100 scale) (corn [5]; 125 g ai/ha): 0 | Corn plant response rating (corn [5]; [18]): 0 | Wheat plant response rating (wheat [6]; [19]): 0 | Plant response rating, Wheat (wheat [6]; [20]): 0 | Foxtail, Giant plant response rating (giant foxtail [7]; [19]): 0 | Plant response rating, Foxtail, Giant (giant foxtail [7]; [20]): 10 | Plant response rating, Barnyardgrass (barnyardgrass [8]): 0 | Velvetleaf plant response rating (velvetleaf [9]; [19]): 50 | Plant response rating, Velvetleaf (velvetleaf [9]; [20]): 90 | Pigweed plant response rating (pigweed [10]; [19]): 10 | Plant response rating, Pigweed (pigweed [10]; [20]): 60 | Morningglory plant response rating (morningglory [11]; [19]): 0 | Plant response rating, Morningglory (morningglory [11]; [20]): 10 | Corn plant response rating (corn [12]; [19]): 0 | Plant response rating, Corn (corn [12]; [20]): 0 | Foxtail, Giant plant response rating (0 to 100 scale) (giant foxtail [13]; 125 g ai/ha): 0 | Foxtail, Giant plant response rating (giant foxtail [13]; [18]): 10 | Barnyardgrass plant response rating (barnyardgrass [14]; [19]): 0 | Plant response rating, Barnyardgrass (barnyardgrass [14]; [20]): 0 | Barnyardgrass plant response rating (0 to 100 scale, 0 is no effect, 100 is complete control) (barnyardgrass [15]; 125 g ai/ha): 0 | Barnyardgrass plant response rating (barnyardgrass [15]; [18]): 0 | Velvetleaf plant response rating (0 to 100 scale) (velvetleaf [16]; 125 g ai/ha): 10 | Velvetleaf plant response rating (velvetleaf [16]; [18]): 20 | Crabgrass, Large plant response rating (large (Lg) crabgrass [17]; [19]): 0 | Plant response rating, Crabgrass, Large (large (Lg) crabgrass [17]; [20]): 10 | Plant response rating, Ducksalad (Heteranthera limosa): 0

C#Cc1cccc(Oc2ncc(Cl)cn2)c1-n1cc(Br)cn1 [Compound 199]
Crabgrass, Large plant response rating (0 to 100 scale) (large (Lg) crabgrass [1]; 125 g ai/ha): 100 | Crabgrass, Large plant response rating (large (Lg) crabgrass [1]; [18]): 100 | Wheat plant response rating (0 to 100 scale) (wheat [2]; 125 g ai/ha): 0 | Wheat plant response rating (wheat [2]; [18]): 0 | Plant response rating, Rice (rice): 20 | Plant response rating, Sedge, Umbrella (sedge, umbrella): 70 | Pigweed plant response rating (0 to 100 scale) (pigweed [3]; 125 g ai/ha): 90 | Pigweed plant response rating (pigweed [3]; [18]): 100 | Morningglory plant response rating (0 to 100 scale) (morningglory [4]; 125 g ai/ha): 0 | Morningglory plant response rating (morningglory [4]; [18]): 20 | Corn plant response rating (0 to 100 scale) (corn [5]; 125 g ai/ha): 0 | Corn plant response rating (corn [5]; [18]): 0 | Wheat plant response rating (wheat [6]; [19]): 0 | Plant response rating, Wheat (wheat [6]; [20]): 30 | Foxtail, Giant plant response rating (giant foxtail [7]; [19]): 70 | Plant response rating, Foxtail, Giant (giant foxtail [7]; [20]): 90 | Plant response rating, Barnyardgrass (barnyardgrass [8]): 0 | Velvetleaf plant response rating (velvetleaf [9]; [19]): 70 | Plant response rating, Velvetleaf (velvetleaf [9]; [20]): 100 | Pigweed plant response rating (pigweed [10]; [19]): 80 | Plant response rating, Pigweed (pigweed [10]; [20]): 100 | Morningglory plant response rating (morningglory [11]; [19]): 40 | Plant response rating, Morningglory (morningglory [11]; [20]): 60 | Corn plant response rating (corn [12]; [19]): 20 | Plant response rating, Corn (corn [12]; [20]): 60 | Foxtail, Giant plant response rating (0 to 100 scale) (giant foxtail [13]; 125 g ai/ha): 90 | Foxtail, Giant plant response rating (giant foxtail [13]; [18]): 100 | Barnyardgrass plant response rating (barnyardgrass [14]; [19]): 30 | Plant response rating, Barnyardgrass (barnyardgrass [14]; [20]): 80 | Barnyardgrass plant response rating (0 to 100 scale, 0 is no effect, 100 is complete control) (barnyardgrass [15]; 125 g ai/ha): 20 | Barnyardgrass plant response rating (barnyardgrass [15]; [18]): 80 | Velvetleaf plant response rating (0 to 100 scale) (velvetleaf [16]; 125 g ai/ha): 20 | Velvetleaf plant response rating (velvetleaf [16]; [18]): 90 | Crabgrass, Large plant response rating (large (Lg) crabgrass [17]; [19]): 40 | Plant response rating, Crabgrass, Large (large (Lg) crabgrass [17]; [20]): 90 | Plant response rating, Ducksalad (Heteranthera limosa): 70

Clc1ccc(-n2cccn2)c(Oc2ncc(Br)cn2)c1 [Compound 50]
Plant response rating, Crabgrass, Large (large (Lg) crabgrass [1]; [19]): 0 | Crabgrass, Large plant response rating (large (Lg) crabgrass [1]; [21]): 40 | Plant response rating, Wheat (wheat [2]; [19]): 0 | Wheat plant response rating (wheat [2]; [21]): 0 | Plant response rating, Rice (rice): 0 | Plant response rating, Sedge, Umbrella (sedge, umbrella): 0 | Plant response rating, Pigweed (pigweed [3]; [19]): 0 | Pigweed plant response rating (pigweed [3]; [21]): 0 | Plant response rating, Morningglory (morningglory [4]; [19]): 0 | Morningglory plant response rating (morningglory [4]; [21]): 0 | Plant response rating, Corn (corn [5]; [19]): 0 | Corn plant response rating (corn [5]; [21]): 0 | Plant response rating, Wheat (wheat [6]; [19]): 0 | Plant response rating, Wheat (wheat [6]; [22]): 0 | Plant response rating, Foxtail, Giant (giant foxtail [7]; [19]): 0 | Plant response rating, Foxtail, Giant (giant foxtail [7]; [22]): 0 | Plant response rating, Barnyardgrass (barnyardgrass [8]): 0 | Plant response rating, Velvetleaf (velvetleaf [9]; [19]): 0 | Plant response rating, Velvetleaf (velvetleaf [9]; [22]): 10 | Plant response rating, Pigweed (pigweed [10]; [19]): 20 | Plant response rating, Pigweed (pigweed [10]; [22]): 30 | Plant response rating, Morningglory (morningglory [11]; [19]): 20 | Plant response rating, Morningglory (morningglory [11]; [22]): 30 | Plant response rating, Corn (corn [12]; [19]): 0 | Plant response rating, Corn (corn [12]; [22]): 0 | Plant response rating, Foxtail, Giant (giant foxtail [13]; [19]): 0 | Foxtail, Giant plant response rating (giant foxtail [13]; [21]): 0 | Plant response rating, Barnyardgrass (barnyardgrass [14]; [19]): 0 | Plant response rating, Barnyardgrass (barnyardgrass [14]; [22]): 10 | Plant response rating, Barnyardgrass (barnyardgrass [15]; [19]): 0 | Barnyardgrass plant response rating (barnyardgrass [15]; [21]): 0 | Plant response rating, Velvetleaf (velvetleaf [16]; [19]): 0 | Velvetleaf plant response rating (velvetleaf [16]; [21]): 0 | Plant response rating, Crabgrass, Large (large (Lg) crabgrass [17]; [19]): 0 | Plant response rating, Crabgrass, Large (large (Lg) crabgrass [17]; [22]): 10 | Plant response rating, Ducksalad (Heteranthera limosa): 0

Fc1cc(Oc2ncc(Cl)cn2)c(-n2cc(Br)cn2)cc1F [Compound 196]
Crabgrass, Large plant response rating (0 to 100 scale) (large (Lg) crabgrass [1]; 125 g ai/ha): 60 | Crabgrass, Large plant response rating (large (Lg) crabgrass [1]; [18]): 100 | Wheat plant response rating (0 to 100 scale) (wheat [2]; 125 g ai/ha): 0 | Wheat plant response rating (wheat [2]; [18]): 0 | Plant response rating, Rice (rice): 0 | Plant response rating, Sedge, Umbrella (sedge, umbrella): 70 | Pigweed plant response rating (0 to 100 scale) (pigweed [3]; 125 g ai/ha): 90 | Pigweed plant response rating (pigweed [3]; [18]): 100 | Morningglory plant response rating (0 to 100 scale) (morningglory [4]; 125 g ai/ha): 0 | Morningglory plant response rating (morningglory [4]; [18]): 0 | Corn plant response rating (0 to 100 scale) (corn [5]; 125 g ai/ha): 0 | Corn plant response rating (corn [5]; [18]): 0 | Wheat plant response rating (wheat [6]; [19]): 0 | Plant response rating, Wheat (wheat [6]; [20]): 10 | Foxtail, Giant plant response rating (giant foxtail [7]; [19]): 30 | Plant response rating, Foxtail, Giant (giant foxtail [7]; [20]): 80 | Plant response rating, Barnyardgrass (barnyardgrass [8]): 20 | Velvetleaf plant response rating (velvetleaf [9]; [19]): 100 | Plant response rating, Velvetleaf (velvetleaf [9]; [20]): 100 | Pigweed plant response rating (pigweed [10]; [19]): 100 | Plant response rating, Pigweed (pigweed [10]; [20]): 100 | Morningglory plant response rating (morningglory [11]; [19]): 20 | Plant response rating, Morningglory (morningglory [11]; [20]): 80 | Corn plant response rating (corn [12]; [19]): 10 | Plant response rating, Corn (corn [12]; [20]): 40 | Foxtail, Giant plant response rating (0 to 100 scale) (giant foxtail [13]; 125 g ai/ha): 50 | Foxtail, Giant plant response rating (giant foxtail [13]; [18]): 90 | Barnyardgrass plant response rating (barnyardgrass [14]; [19]): 10 | Plant response rating, Barnyardgrass (barnyardgrass [14]; [20]): 50 | Barnyardgrass plant response rating (0 to 100 scale, 0 is no effect, 100 is complete control) (barnyardgrass [15]; 125 g ai/ha): 0 | Barnyardgrass plant response rating (barnyardgrass [15]; [18]): 40 | Velvetleaf plant response rating (0 to 100 scale) (velvetleaf [16]; 125 g ai/ha): 20 | Velvetleaf plant response rating (velvetleaf [16]; [18]): 40 | Crabgrass, Large plant response rating (large (Lg) crabgrass [17]; [19]): 30 | Plant response rating, Crabgrass, Large (large (Lg) crabgrass [17]; [20]): 90 | Plant response rating, Ducksalad (Heteranthera limosa): 85
